Data published in US20040009904A1, “APL immunoreactive peptides, conjugates thereof and methods of treatment for aPL antibody-mediated pathologies” (priority 1995, published 2004).
Ends that are not written are not given here. ATU = not defined here

What was measured:
ACA-6501 = assay: Competitive binding peptide ACA ELISA, cardiolipin/β2-GPI-coated plates; set-up: species or system human; settings: Optimization of Peptide 3G3; inf = no 50% inhibition
Procedure: A variation of this assay uses microtitration plates coated with human β2-glycoprotein I/cardiolipin (β2-GPI/CL) instead of tetravalent peptide and tests the ability of monomeric peptides to block the binding of aPL antibody to the epitope(s) on β2-GPI/CL. In this assay, IgG-depleted human serum at an optimized concentration is used as a source of β2-GPI. The monomeric peptides at several concentrations are incubated with an optimized concentration of aPL antibody in a manner analogous to the assay which employs tetravalent peptide as a plate substrate. Following the incubation of aPL/peptide in (β2-GPI/CL) plates, antibody binding and the peptide concentration required for 50% inhibition is determined at half-maximal absorbance as in the tetravalent assay.
Peptide sequences for all five peptides immediately follow the table. All were tested using the competitive binding peptide ACA ELISA using CL/β2-GPI plates as described herein.
(B) Immulon I® 96-well, flat-bottom, polystyrene microtitration plates (Dynatech Laboratories, Inc., Chantilly, Va.) were coated with 30 μL/well of cardiolipin (CL, 50 μg; Sigma Chemical Co., St. Louis, Mo.) in ethanol. Two control wells received 30 μL ethanol only. After overnight evaporation at 4° C., each well was blocked with 200 μL of 5% (w/v) fish gelatin in PBS for 2 hours at RT.
During this incubation, variable amounts of each of six peptides were mixed with 22 μL ACA-6501 serum diluted with 3% fish gelatin in 1:1 TBS/PBS (final dilution of 1:400) in a final volume of 220 μL using Eppendorf microcentrifuge tubes. Specifically, in tube #1 were mixed 181.3 μL of 3% fish gelatin in TBS-PBS, 16.7 μL of peptide stock solution plus 22 μL of ACA-6501 serum diluted 40 times in 3% fish gelatin/TBS-PBS. Stock solutions ranged from 450-800 μg/mL for peptides #951 (diserine non-cyclized negative control), #952 (a lot of LJP 690), and thioethers CCTE-3G3, CHTE-3G3, HCTE-3G3 and HHTE-3G3. To tube #2 the following were added: 148 μL fish gelatin/TBS-PBS, […] of peptide stock solution, plus 22 μL of 40 times diluted ACA-6501 serum. Tube #3 contained 48 μL fish gelatin/TBS-PBS, […] of peptide stock solution, plus 22 μL of 40 times diluted ACA-6501 serum. The control tube #4 received 396 μL fish gelatin/TBS-PBS and 44 μL of 40 times diluted ACA-6501 serum (no peptide). Each of the tubes incubated for approximately 1 hour at RT.
The CL/β2-GPI microtitration plate was washed 5 times with TBS and 100 μL aliquots in duplicate from Eppendorf tubes #1, 2, 3, and 4 containing the antibody-peptide (or no peptide mixtures) were added to the wells. A volume of 100 μL from tube #4 was added to the duplicate control wells containing no cardiolipin. The microtitration plate was incubated for 1 hour at RT with agitation at 40 rpm in an orbital shaker (American Scientific, Rotator V), washed 5 times with TBS and then 100 μL of 1:1000 goat anti-human IgG alkaline phosphatase conjugate (Zymed, Cat No. 62-8422) in 0.5% (w/v) BSA-TBS was added. Following incubation for 1 hour at RT, the microtitration plate was again washed 5 times with TBS and the colorimetric enzyme detection developed by adding 100 μL of PMPP solution (7.8 g phenolphthalein monophosphate plus 69.5 g of 2-amino-2-methyl-1-propanol in 100 mL water stock solution diluted 1:26 with water). After 21 minutes, the reaction was stopped by adding 50 μL of 0.2 M Na2HPO4 (Mallinckrodt) to each well. Absorbance at 550 nm was read in a microplate reader (Bio-Tek Instruments, Model EL 311). The amount of peptide that inhibited ACA-6501 binding by 50%, the IC50, was calculated from the graph at the intersection of half-maximal absorbance with amount of peptide added.

ACA = assay: Structure Activity Relationship of the Crossreactive ACA Epitope (relative activity); assay type: binding, human; settings: LJP 688 = 100
From the text: Peptide 6641/3G3 (LJP 688) was subjected to a number of analyses. The analyses included truncation at both the N-terminus and the C-terminus, disulfide substitution, substitution of alanine and glycine for amino acids in positions 2 through 8, substitution of branched aliphatic amino acids in positions 2, 4, 5 and 8, substitution of amino acids affecting conformation of the peptide, including substitution of α-methyl amino acids, substitution of basic amino acids in position 7, substitution of D-amino acids in positions 2 through 9, and the substitution of N-α-methyl amino acids in positions 1 through 9.

Substance | with ACA 6501 150 ug/mL (ACA-6501) | Relative Activity (ACA)
C L G V L G K L C ATU-Y (CLGVLGKLC; C-terminal ATU-Y extension) | 300 µg/mL | –
C L G V aiB G K L C | inf. | –
CLGGLGKLC [C L G G L G K L C] | inf. | –
CLGVAGKLC [C L G V A G K L C] | inf | ∞
CLGVGGKLC [C L G V G G K L C] | inf | –
CLGVLCKLC [C L G V L C K L C] | 500 µg/mL | –
CLGVLGALC [C L G V L G A L C] | inf | ∞
CLGVLGGLC [C L G V L G G L C] | inf | –
CLGVLPGKLC | – | 1.4
CLGVPGKLC [C L G V P G K L C] | Inf. | –
SLGVLGKLS [diserine non-cyclized negative control, reference compound] | – | ∞
Y ATU C L G V L G K L C ({Tyr-ATU}-CLGVLGKLC; cysteine pairing not given here; reading uncertain) | 170 µg/mL | –
